Legend:
Type in all cases: cell-based
[1] = test system: cell line PC3 (human androgen-independent prostate carcinoma); experiment: Transfection of PC3 cells with plasmid pEGFP-N1; GFP expression by cytofluorimetry 48 h later, and survival; settings: for capable of giving a significant percentage of living cells expressing the GFP protein (in words) / toxicity / cell mortality with respect to 16, 22 and 17 (in words): 5 μg pEGFP-N1
Experimental: The plasmid vector PEGFP-N1 (BD Biosciences), containing the gene encoding green fluorescent protein (GFP) has been used in the transfection tests. Due to its properties, GFP is a useful tool for monitoring “passive” gene expression: indeed, fluorescent detection in this particular system is performed by means of cytofluorimetry or by microscopy.
Transfection tests have been performed on the cell line PC3 (human androgen-independent prostate carcinoma) with the plasmid PEGFP-N1 used in quantities equal to 2.5 and 5 μg. The general experimental outline envisaged 4 hours of transfection in reduced-serum culture medium, and in the absence of antibiotics. Upon completion of transfection, the culture medium has been replaced with normal growth medium and the evaluation of GFP expression has been performed 48 hours later by means of cytofluorimetry.

[2] = test system: normal human thyrocytes (Line 636); experiment: Transfection of normal human thyrocytes (Line 636) with 16/pEGFP-N1 complexes; GFP expression and survival; settings: 16/pEGFP-N1 (5 μg)
[3] = test system: transformed human kidney cells (Line 293); experiment: Transfection of transformed human kidney cells (Line 293) with 16/pEGFP-N1 complexes; GFP expression and survival; settings: 16/pEGFP-N1 (5 μg)
[4] = 5 μg pEGFP-N1, constant charge ratio CR = 6 (Table 2)
[5] = 5 μg pEGFP-N1, constant charge ratio CR = 6, percentage with respect to control (Table 2)
[6] = CR = 6, percentage with respect to control, preliminary data
[7] = 2.5 μg pEGFP-N1, 16 and 17 at CR = 6.0, commercial agents per manufacturer, at least 3 independent experiments (Table 3)
[8] = 2.5 μg pEGFP-N1, 16 and 17 at CR = 6.0, commercial agents per manufacturer, mean percentage with respect to control, at least 3 independent experiments (Table 3)
[9] = 2.5 μg pEGFP-N1, charge ratio CR = 1.5
[10] = 2.5 μg pEGFP-N1, charge ratio CR = 3.0
[11] = 2.5 μg pEGFP-N1, charge ratio CR = 6.0 (Table 1)
[12] = 5 μg pEGFP-N1, 16 and 17 at CR = 6.0, commercial agents per manufacturer, at least 3 independent experiments (Table 3)
[13] = 5 μg pEGFP-N1, 16 and 17 at CR = 6.0, commercial agents per manufacturer, mean percentage with respect to control, at least 3 independent experiments (Table 3)
[14] = 5 μg pEGFP-N1, charge ratio CR = 1.5
[15] = 5 μg pEGFP-N1, charge ratio CR = 3.0
[16] = 5 μg pEGFP-N1, charge ratio CR = 6.0 (Table 1)

CCCCCCNc1nc(NCCS)nc(NCCCN)n1 [Compound 21]
capable of giving a significant percentage of living cells expressing the GFP protein (in words) [1]: none
toxicity / cell mortality with respect to 16, 22 and 17 (in words) [1]: significantly greater cell mortality
GFP+ living cells [1, 4]: 0.3%
Total GFP+ cells [1, 4]: 2.1%
Survival [1, 5]: 12.8%

CCCCCCCCCCCCCCNc1nc(NCCS)nc(N2CCNCC2)n1 [Compound 18, 2-[4-(2-N-piperazinyl)-6-tetradecylamino-[1,3,5]triazin-2-ylamino]-ethanethiol]
capable of giving a significant percentage of living cells expressing the GFP protein (in words) [1]: none
toxicity / cell mortality with respect to 16, 22 and 17 (in words) [1]: significantly greater cell mortality
GFP+ living cells [1, 4]: 8.4%
Total GFP+ cells [1, 4]: 56.2%
Survival [1, 5]: 6.3%

CCCCCCCCCCCCCCNc1nc(NCCS)nc(NCCCN)n1 [Compound 16]
Survival [2, 6]: 75.3%
GFP+ living cells ([2]; CR = 6, preliminary data): 34.3%
Total GFP+ cells ([2]; CR = 6, preliminary data): 53.8%
GFP+ living cells [1, 7]: 20.5%
Total GFP+ cells [1, 7]: 25.4%
Survival [1, 8]: 81.0%
GFP+ living cells [1, 9]: 1.18%
Total GFP+ cells [1, 9]: 4.75%
Survival ([1]; 2.5 μg pEGFP-N1, charge ratio CR = 1.5, percentage with respect to control): 71.4%
GFP+ living cells [1, 10]: 4.05%
Total GFP+ cells [1, 10]: 7.81%
Survival ([1]; 2.5 μg pEGFP-N1, charge ratio CR = 3.0, percentage with respect to control): 79.8%
GFP+ living cells [1, 11]: 32.40%
Total GFP+ cells [1, 11]: 46.13%
Survival ([1]; 2.5 μg pEGFP-N1, charge ratio CR = 6.0, percentage with respect to control (Table 1)): 86.3%
GFP+ living cells [1, 12]: 41.14%
Total GFP+ cells [1, 12]: 57%
Survival [1, 13]: 58.0%
GFP+ living cells [1, 14]: 1.54%
Total GFP+ cells [1, 14]: 1.85%
Survival ([1]; 5 μg pEGFP-N1, charge ratio CR = 1.5, percentage with respect to control): 100%
GFP+ living cells [1, 15]: 10.6%
Total GFP+ cells [1, 15]: 12.45%
Survival ([1]; 5 μg pEGFP-N1, charge ratio CR = 3.0, percentage with respect to control): 96.0%
GFP+ living cells [1, 16]: 64.6%
Total GFP+ cells [1, 16]: 70.70%
Survival ([1]; 5 μg pEGFP-N1, charge ratio CR = 6.0, percentage with respect to control (Table 1)): 64.4%
cellular toxicity (in words) ([1]; 2.5 and 5 μg pEGFP-N1): absence of any significant cellular toxicity
capacity to induce the transfection of PC3 cells (in words) ([1]; 2.5 and 5 μg pEGFP-N1, GFP expression 48 hours following transfection): significant percentage of GFP-positive cells
transfection efficiency compared with Lipofectamine 2000 (in words) ([1]; equal amounts of plasmid DNA): comparable to that of Lipofectamine 2000 only in the presence of higher quantities of plasmid DNA
Survival [3, 6]: 86.8%
GFP+ living cells ([3]; CR = 6, preliminary data): 58.3%
Total GFP+ cells ([3]; CR = 6, preliminary data): 76.2%

CCCCCCCC/C=C\CCCCCCCC(=O)OCC(C[N+](C)(C)C)OC(=O)CCCCCCC/C=C\CCCCCCCC.[Cl-] (centres unmarked) [DOTAP, reference compound]
GFP+ living cells [1, 7]: 12.0%
Total GFP+ cells [1, 7]: 15.8%
Survival [1, 8]: 78.6%
GFP+ living cells [1, 12]: 21.3%
Total GFP+ cells [1, 12]: 23.5%
Survival [1, 13]: 65.8%
percentage of transfection with respect to compounds 16 and 17 (in words) ([1]; both quantities of plasmid DNA): lower percentage of transfection
toxicity with respect to compounds 16 and 17 (in words) ([1]; both quantities of plasmid DNA): less toxic

NCCCNc1nc(NCCS)nc(NCc2ccccc2)n1 [Compound 20]
capable of giving a significant percentage of living cells expressing the GFP protein (in words) [1]: none
toxicity / cell mortality with respect to 16, 22 and 17 (in words) [1]: did not show excessive levels of toxicity
GFP+ living cells [1, 4]: 0.01%
Total GFP+ cells [1, 4]: 0.9%
Survival [1, 5]: 74.0%

Source: patent publication US7999101B2, “Cationic lipids for the transfection of nucleic acids” (Politecnico Di Milano, priority 2005, dated 2011)
